Reference: ChEMBL document CHEMBL3885881, “DrugMatrix”

Tests used:
Rattus norvegicus [1] = species: Rattus norvegicus; format: toxicity, organism-based, Sprague-Dawley; conditions: in vivo, po, 1200 mg/kg, 24 h, route oral GAVAGE, dose level High, time 1 day, vehicle .5 % CMC
Description: DrugMatrix - Regimen: Single

Rattus norvegicus [2] = species: Rattus norvegicus; test: DrugMatrix - Regimen: Daily Repeat; format: toxicity, organism-based, Sprague-Dawley; parameters: regimen Daily Repeat, gender Male, age 6-8 weeks; conditions: in vivo, po, 1200 mg/kg, 72 h, route oral GAVAGE, dose level High, time 3 day, vehicle .5 % CMC

Nc1ccc(Cl)cc1[N+](=O)[O-] [4-CHLORO-2-NITROANILINE]
ABSOLUTE EOSINOPHIL (Rattus norvegicus [1]; tissue Blood): 51.67 CELLS/uL
ABSOLUTE LYMPHOCYTE (Rattus norvegicus [1]; tissue Blood): 11963.33 CELLS/uL
ABSOLUTE MONOCYTE (Rattus norvegicus [1]; tissue Blood): 476.67 CELLS/uL
ABSOLUTE SEGMENTED NEUTROPHIL (Rattus norvegicus [1]; tissue Blood): 1508.33 CELLS/uL
BASOPHIL (Rattus norvegicus [1]; tissue Blood): 0%
EOSINOPHIL (Rattus norvegicus [1]; tissue Blood): 0.33%
ERYTHROCYTE COUNT (Rattus norvegicus [1]; tissue Blood): 5.85 x10E6/uL
HEMATOCRIT (Rattus norvegicus [1]; tissue Blood): 35.7%
HEMOGLOBIN (Rattus norvegicus [1]; tissue Blood): 12.97 G/DL
LEUKOCYTE COUNT (Rattus norvegicus [1]; tissue Blood): 14 x10E3/uL
LYMPHOCYTE (Rattus norvegicus [1]; tissue Blood): 85.67%
MEAN CORPUSCULAR HEMOGLOBIN (Rattus norvegicus [1]; tissue Blood): 22.17 pg
MEAN CORPUSCULAR HEMOGLOBIN CONCENTRATION (Rattus norvegicus [1]; tissue Blood): 36.3 G/DL
MEAN CORPUSCULAR VOLUME (Rattus norvegicus [1]; tissue Blood): 61.07 fL
MONOCYTE (Rattus norvegicus [1]; tissue Blood): 3.33%
NEUTROPHIL (Rattus norvegicus [1]; tissue Blood): 10.67%
NUCLEATED RED BLOOD CELLS (Rattus norvegicus [1]; tissue Blood): 0 /100WBC
PLATELET COUNT (Rattus norvegicus [1]; tissue Blood): 1137 x10E3/uL
ALANINE AMINOTRANSFERASE (Rattus norvegicus [1]; tissue Plasma): 71.67 u/L
ALBUMIN (Rattus norvegicus [1]; tissue Plasma): 4.2 G/DL
ALKALINE PHOSPHATASE (Rattus norvegicus [1]; tissue Plasma): 484 u/L
ASPARTATE AMINOTRANSFERASE (Rattus norvegicus [1]; tissue Plasma): 114 u/L
BLOOD UREA NITROGEN (Rattus norvegicus [1]; tissue Plasma): 15 mg/dL
CARBON DIOXIDE (Rattus norvegicus [1]; tissue Plasma): 23.33 mmol/L
CHLORIDE (Rattus norvegicus [1]; tissue Plasma): 101.33 MEQ/L
CHOLESTEROL (Rattus norvegicus [1]; tissue Plasma): 86.33 mg/dL
CREATININE (Rattus norvegicus [1]; tissue Plasma): 0.27 mg/dL
GLUCOSE (Rattus norvegicus [1]; tissue Plasma): 219 mg/dL
LACTATE DEHYDROGENASE (Rattus norvegicus [1]; tissue Plasma): 411.33 u/L
LIPASE (Rattus norvegicus [1]; tissue Plasma): 10 u/L
PHOSPHORUS (Rattus norvegicus [1]; tissue Plasma): 14.33 mg/dL
POTASSIUM (Rattus norvegicus [1]; tissue Plasma): 6.09 MEQ/L
SODIUM (Rattus norvegicus [1]; tissue Plasma): 142.83 MEQ/L
TOTAL BILIRUBIN (Rattus norvegicus [1]; tissue Plasma): 0.2 mg/dL
TOTAL PROTEIN (Rattus norvegicus [1]; tissue Plasma): 6.2 G/DL
URIC ACID (Rattus norvegicus [1]; tissue Plasma): 2.73 mg/dL
ABSOLUTE BASOPHIL (Rattus norvegicus [2]; tissue Blood): 0 CELLS/uL
ABSOLUTE EOSINOPHIL (Rattus norvegicus [2]; tissue Blood): 170.33 CELLS/uL
ABSOLUTE LYMPHOCYTE (Rattus norvegicus [2]; tissue Blood): 8812.67 CELLS/uL
ABSOLUTE MONOCYTE (Rattus norvegicus [2]; tissue Blood): 210.67 CELLS/uL
ABSOLUTE SEGMENTED NEUTROPHIL (Rattus norvegicus [2]; tissue Blood): 673 CELLS/uL
BASOPHIL (Rattus norvegicus [2]; tissue Blood): 0%
EOSINOPHIL (Rattus norvegicus [2]; tissue Blood): 1.67%
ERYTHROCYTE COUNT (Rattus norvegicus [2]; tissue Blood): 6.64 x10E6/uL
HEMATOCRIT (Rattus norvegicus [2]; tissue Blood): 39.73%
HEMOGLOBIN (Rattus norvegicus [2]; tissue Blood): 14.83 G/DL
LEUKOCYTE COUNT (Rattus norvegicus [2]; tissue Blood): 9.87 x10E3/uL
LYMPHOCYTE (Rattus norvegicus [2]; tissue Blood): 89%
MEAN CORPUSCULAR HEMOGLOBIN (Rattus norvegicus [2]; tissue Blood): 22.33 pg
MEAN CORPUSCULAR HEMOGLOBIN CONCENTRATION (Rattus norvegicus [2]; tissue Blood): 37.37 G/DL
MEAN CORPUSCULAR VOLUME (Rattus norvegicus [2]; tissue Blood): 59.8 fL
MONOCYTE (Rattus norvegicus [2]; tissue Blood): 2.33%
NEUTROPHIL (Rattus norvegicus [2]; tissue Blood): 7%
NUCLEATED RED BLOOD CELLS (Rattus norvegicus [2]; tissue Blood): 0.33 /100WBC
PLATELET COUNT (Rattus norvegicus [2]; tissue Blood): 873.33 x10E3/uL
ALANINE AMINOTRANSFERASE (Rattus norvegicus [2]; tissue Plasma): 82.67 u/L
ALBUMIN (Rattus norvegicus [2]; tissue Plasma): 4.53 G/DL
ALKALINE PHOSPHATASE (Rattus norvegicus [2]; tissue Plasma): 464.33 u/L
ASPARTATE AMINOTRANSFERASE (Rattus norvegicus [2]; tissue Plasma): 89.67 u/L
BLOOD UREA NITROGEN (Rattus norvegicus [2]; tissue Plasma): 17 mg/dL
CARBON DIOXIDE (Rattus norvegicus [2]; tissue Plasma): 36.67 mmol/L
CHLORIDE (Rattus norvegicus [2]; tissue Plasma): 100 MEQ/L
CHOLESTEROL (Rattus norvegicus [2]; tissue Plasma): 91.67 mg/dL
CREATININE (Rattus norvegicus [2]; tissue Plasma): 0.24 mg/dL
GLUCOSE (Rattus norvegicus [2]; tissue Plasma): 126.33 mg/dL
LACTATE DEHYDROGENASE (Rattus norvegicus [2]; tissue Plasma): 78.67 u/L
LIPASE (Rattus norvegicus [2]; tissue Plasma): 10 u/L
PHOSPHORUS (Rattus norvegicus [2]; tissue Plasma): 11.83 mg/dL
POTASSIUM (Rattus norvegicus [2]; tissue Plasma): 6.36 MEQ/L
SODIUM (Rattus norvegicus [2]; tissue Plasma): 147.57 MEQ/L
TOTAL BILIRUBIN (Rattus norvegicus [2]; tissue Plasma): 0.23 mg/dL
TOTAL PROTEIN (Rattus norvegicus [2]; tissue Plasma): 6.73 G/DL
URIC ACID (Rattus norvegicus [2]; tissue Plasma): 1.37 mg/dL
